Laboratory results taken from patent US20070129344A1, “Bicyclic 6-alkylidene-penem beta-lactamase inhibitors and beta-lactam antibiotic combination: a broad spectrum antibiotic” (priority 2005, published 2007).
Counter-ions that a name gives are not always drawn.

What was measured:
[1] = tested on: E. coli ATCC 25922 (none); assay: MIC microbroth dilution; β-lactamase class none; assay type: cell-based; conditions: Escherichia coli, ATCC25922, E. coli ATCC 25922; Cefepime + 4 ug/ml Compound 2; read-out: MIC
Experimental: (§1) The in vitro activities of the antibiotics were determined by the microbroth dilution method as recommended by the National Committee for Clinical Laboratory Standards (NCCLS). (NCCLS. 2000. Methods for Dilution Antimicrobial Susceptibility Tests for Bacteria That Grow Aerobically; Approved Standards: M7-A5, vol. 19. National Committee for Clinical Laboratory Standards, Villanova, Pa.). Mueller-Hinton II broth (MHBII)(BBL Cockeysville, Md.), was used for the testing procedure. […]. The plates were incubated for 18-22 hours at 35° C. in ambient air.

[2] = tested on: E. coli GC 2804 (imp); assay: MIC microbroth dilution; β-lactamase class none; assay type: cell-based; conditions: Escherichia coli, Cefepime + 4 ug/ml Compound 2
Experimental: as §1

[3] = tested on: E. coli GC 2844 (none); assay: MIC microbroth dilution; β-lactamase class none; assay type: cell-based; conditions: Escherichia coli, Cefepime + 4 ug/ml Compound 2, read-out: MIC
Experimental: as §1

[4] = tested on: E. coli GC 1684 (TEM-10); assay: MIC microbroth dilution; β-lactamase class A (ESBL); assay type: cell-based; conditions: Escherichia coli, Cefepime + 4 ug/ml Compound 2, read-out: MIC
Experimental: as §1

[5] = tested on: E. coli GC 1995 (TEM-10); assay: as above; assay type: cell-based; conditions: Escherichia coli, Cefepime + 4 ug/ml Compound 2, read-out: MIC
Experimental: as §1

[6] = tested on: E. coli GC 2017 (TEM-10 + pl 6.3; 8.1); assay: as above; assay type: cell-based; conditions: Escherichia coli, Cefepime + 4 ug/ml Compound 2, read-out: MIC
Experimental: as §1

[7] = tested on: E. coli GC 6368 (SHV-7); assay: as above; assay type: cell-based; conditions: Escherichia coli, Cefepime + 4 ug/ml Compound 2, read-out: MIC
Experimental: as §1

[8] = tested on: K. pn GC 1507 (TEM-9 + SHV-1); assay: MIC microbroth dilution; β-lactamase class A, A (ESBL); assay type: cell-based, K. pneumoniae; conditions: Klebsiella pneumoniae, Cefepime + 4 ug/ml Compound 2, read-out: MIC
Experimental: as §1

[9] = tested on: K. pn GC 1554 (TEM-1 + TEM-26 + SHV-1); assay: as above; assay type: cell-based, K. pneumoniae; conditions: Klebsiella pneumoniae, Cefepime + 4 ug/ml Compound 2, read-out: MIC
Experimental: as §1

[10] = tested on: K. pn GC 1963 (TEM-10 + SHV-1 + SHV-ESBL); assay: as above; assay type: cell-based, K. pneumoniae; conditions: Klebsiella pneumoniae, Cefepime + 4 ug/ml Compound 2, read-out: MIC
Experimental: as §1

[11] = tested on: K. pn GC 2006 (TEM-10 + SHV-1); assay: as above; assay type: cell-based, K. pneumoniae; conditions: Klebsiella pneumoniae, Cefepime + 4 ug/ml Compound 2, read-out: MIC
Experimental: as §1

[12] = tested on: K. pn GC 3057 (CAZ-R; P/T-R); assay: as above; assay type: cell-based, K. pneumoniae; conditions: Klebsiella pneumoniae, Cefepime + 4 ug/ml Compound 2, read-out: MIC
Experimental: as §1

[13] = tested on: K. pn GC 6488 (TEM-1 + SHV-5 + SHV-7); assay: as above; assay type: cell-based, K. pneumoniae; conditions: Klebsiella pneumoniae, Cefepime + 4 ug/ml Compound 2, read-out: MIC
Experimental: as §1

[14] = tested on: K. pn GC 6494 (TEM-1 + SHV-5); assay: as above; assay type: cell-based, K. pneumoniae; conditions: Klebsiella pneumoniae, Cefepime + 4 ug/ml Compound 2, read-out: MIC
Experimental: as §1

[15] = tested on: K. pn GC 6651 (TEM-1 + SHV-1 + SHV-5); assay: as above; assay type: cell-based, K. pneumoniae; conditions: Klebsiella pneumoniae, Cefepime + 4 ug/ml Compound 2, read-out: MIC
Experimental: as §1

[16] = tested on: K. pn GC 6657 (TEM-1 + SHV-27); assay: as above; assay type: cell-based, K. pneumoniae; conditions: Klebsiella pneumoniae, Cefepime + 4 ug/ml Compound 2, read-out: MIC
Experimental: as §1

[17] = tested on: E. coli GC 1499 (TEM-4 + TEM-1); assay: as above; assay type: cell-based; conditions: Escherichia coli, Cefepime + 4 ug/ml Compound 2, read-out: MIC
Experimental: as §1

[18] = tested on: E. coli GC 1695 (TEM-1 + TEM-10); assay: as above; assay type: cell-based; conditions: Escherichia coli, Cefepime + 4 ug/ml Compound 2, read-out: MIC
Experimental: as §1

[19] = tested on: E. coli GC 2015 (TEM-10 + SHV-1); assay: as above; assay type: cell-based; conditions: Escherichia coli, Cefepime + 4 ug/ml Compound 2, read-out: MIC
Experimental: as §1

[20] = tested on: E. coli GC 2146 (TEM-1; SHV-7); assay: as above; assay type: cell-based; conditions: Escherichia coli, Cefepime + 4 ug/ml Compound 2, read-out: MIC
Experimental: as §1

[21] = tested on: E. coli GC 5901 (TEM-1 and SHV-8); assay: as above; assay type: cell-based; conditions: Escherichia coli, Cefepime + 4 ug/ml Compound 2, read-out: MIC
Experimental: as §1

[22] = tested on: E. coli GC 6260 (TEM-1 + SHV-5); assay: as above; assay type: cell-based; conditions: Escherichia coli, Cefepime + 4 ug/ml Compound 2, read-out: MIC
Experimental: as §1

[23] = tested on: K. pneumoniae GC 7635 SHV-1, KPC2; assay: MIC microbroth dilution; β-lactamase class A, A (Cb'ase); assay type: cell-based; conditions: Klebsiella pneumoniae, Cefepime + 4 ug/ml Compound 2, read-out: MIC
Experimental: as §1

[24] = tested on: K. pneumoniae GC 7632 TEM-1 KPC-2, SHV-7, SHV-12; assay: MIC microbroth dilution; β-lactamase class A, A (Cb'ase), A (ESBL); assay type: cell-based; conditions: Klebsiella pneumoniae, Cefepime + 4 ug/ml Compound 2, read-out: MIC
Experimental: as §1

[25] = tested on: C. freundii GC 4171 TEM-1 + InducibleAmpC; assay: MIC microbroth dilution; β-lactamase class A, C; assay type: cell-based; conditions: Citrobacter freundii
Experimental: as §1

[26] = tested on: K. pn GC 3104 (MIR-1 + TEM-1); assay: MIC microbroth dilution; β-lactamase class A, C; assay type: cell-based, K. pneumoniae; conditions: Klebsiella pneumoniae, Cefepime + 4 ug/ml Compound 2, read-out: MIC
Experimental: as §1

[27] = tested on: K. pn GC 6655 (TEM-1 + ACT-1); assay: MIC microbroth dilution; β-lactamase class A, C; assay type: cell-based, K. pneumoniae; conditions: Klebsiella pneumoniae, Cefepime + 4 ug/ml Compound 2, read-out: MIC
Experimental: as §1

[28] = tested on: S. marcescens GC 1781 (Sme-1 + AmpC); assay: MIC microbroth dilution; β-lactamase class A (Cb'ase), C; assay type: cell-based; conditions: Serratia marcescens, Cefepime + 4 ug/ml Compound 2, read-out: MIC
Experimental: as §1

[29] = tested on: A. baumannii GC 6660 IMI-R; assay: MIC microbroth dilution; class PBP (penicillin binding protein); assay type: cell-based; conditions: Acinetobacter baumannii, GC6660IMIR, Cefepime + 4 ug/ml Compound 2, read-out: MIC
Experimental: as §1

[30] = tested on: A. baumannii GC 6661 IMI-R; assay: as above; assay type: cell-based; conditions: Acinetobacter baumannii, GC6661IMIR, Cefepime + 4 ug/ml Compound 2, read-out: MIC
Experimental: as §1

[31] = tested on: A. baumannii GC 6662 IMI-R; assay: as above; assay type: cell-based; conditions: Acinetobacter baumannii, GC6662IMIR, Cefepime + 4 ug/ml Compound 2, read-out: MIC
Experimental: as §1

[32] = tested on: A. baumannii PT 8321 PTZ-R; assay: MIC microbroth dilution; β-lactamase class not determined; assay type: cell-based; conditions: Acinetobacter baumannii, PT8321PTZR, Cefepime + 4 ug/ml Compound 2, read-out: MIC
Experimental: as §1

[33] = tested on: A. baumannii PT 9158 PTZ-R; assay: as above; assay type: cell-based; conditions: Acinetobacter baumannii, PT9158PTZR, Cefepime + 4 ug/ml Compound 2, read-out: MIC
Experimental: as §1

Compound: O=C(O)C1=CS[C@@H]2/C(=C\c3cn4c(n3)COCC4)C(=O)N12 [Compound 2, (5R), (6Z)-6-(5,6-Dihydro-8H-imidazo[2.1-c][1,4]oxazin-2-ylmethylene)-7-oxo-4-thia-1-azabicyclo[3.2.0]hept-2-ene-2-carboxylic Acid, Sodium Salt]
- MIC [1]: 0.06 µg/mL
- MIC [2]: < 0.015 µg/mL
- MIC [3]: 0.06 µg/mL
- MIC [4]: 0.06 µg/mL
- MIC [5]: 0.03 µg/mL
- MIC [6]: 0.06 µg/mL
- MIC [7]: 0.06 µg/mL
- MIC [8]: 0.06 µg/mL
- MIC [9]: 0.12 µg/mL
- MIC [10]: 0.25 µg/mL
- MIC [11]: 0.25 µg/mL
- MIC [12]: 0.12 µg/mL
- MIC [13]: 0.5 µg/mL
- MIC [14]: 0.12 µg/mL
- MIC [15]: 0.12 µg/mL
- MIC [16]: 0.06 µg/mL
- MIC [17]: 1 µg/mL
- MIC [18]: 0.03 µg/mL
- MIC [19]: 0.12 µg/mL
- MIC [20]: 0.12 µg/mL
- MIC [21]: 2 µg/mL
- MIC [22]: 0.03 µg/mL
- MIC [23]: 4 µg/mL
- MIC [24]: > 16 µg/mL
- MIC [25]: 0.06 µg/mL
- MIC [26]: 0.5 µg/mL
- MIC [27]: 0.12 µg/mL
- MIC [28]: 0.06 µg/mL
- MIC [29]: > 16 µg/mL
- MIC [30]: 16 µg/mL
- MIC [31]: > 16 µg/mL
- MIC [32]: > 16 µg/mL
- MIC [33]: 16 µg/mL
